# Measurements: US20230322753A1, “HETEROARYL DERIVATIVE, METHOD FOR PREPARATION THEREOF, AND PHARMACEUTICAL COMPOSITION COMPRISING SAME AS ACTIVE INGREDIENT” (VORONOI INC., priority 2020, published 2023)
# Columns and labels:
# Format in all cases: cell-based
# Details in all cases: Mus musculus, BaF3, 72 hours, CellTiter-Glo
# [1] = test system: Ba/F3 cells expressing HER2 YVMA Exon 20ins; experiment: Ba/F3 proliferation suppression activity, cells expressing HER2 YVMA Exon 20ins
# Procedure: (§1) For the Ba/F3 cells, a RPMI-1640 medium containing 10% FBS and 5 ng/ml IL-3 (R&D Systems) was used. The transduced Ba/F3 cells were cultured in a medium, which is same as the above medium, but 1 ug/ml puromycin (Invitrogen) was additionally added to.
# (§2) 24 hours before the treatment of the cells with the compounds, 3000 to 5000 cells were distributed into each well of a white clear bottom 96 well plate (Corning). The compounds were diluted in a dimethyl sulfoxide (e.g. dilution ratio of 3:1 and total 12 concentrations) and then injected by 0.5 ul respectively, such that a final concentration amounted to 0.3 nM to 50 uM. 72 hours after the treatment with the compounds, the measurement of live cells was made in such way that these cells were stored for 10 minutes at a room temperature using a CellTiter-Glo luminescent cell-viability reagent (Promega) and then their luminescence intensities were measured using a reader (i.e. Synergy Neo, Biotek). Each test was repeated three times.
# (§3) resulting values were calculated as a cell growth ratio (%) compared to a control. Then, the graphs were drawn and the […] values were calculated by using a program, GraphPad Prism version 5.0.
# [2] = test system: Ba/F3 cells expressing EGFR Exon20 ins NPH; experiment: Ba/F3 proliferation suppression activity, cells expressing EGFR Exon20 ins NPH
# Procedure: A following experiment was carried out to evaluate the suppression activity of the compounds according to the present invention against the proliferation of Ba/F3 which expresses EGFR mutations.
# as §1, §2, §3
# [3] = test system: Ba/F3 cells expressing HER2 WT; experiment: Ba/F3 proliferation suppression activity, cells expressing ErbB2 (HER2) wild type
# Procedure: as §1, §2, §3
GI50 [1] [nM],GI50 [2] [nM],GI50 [3] [nM],Structure (SMILES)
50 to 500,< 50,–,C=CC(=O)Nc1cc(Nc2cc(N3OCC[C@@H]3c3cc(F)cc(C(F)(F)F)c3)ncn2)c(OC)cc1N1CCC(N2CCN(C3CC3)CC2)CC1 [Compound 1]
< 50,< 50,< 50,C=CC(=O)Nc1cc(Nc2cc(N3OCC[C@@H]3c3ccc(F)c(C(F)(F)F)c3)ncn2)c(OC)cc1N1CCC(N2CCN(C3CC3)[C@@H](C)C2)CC1 [Compound 52]
< 50,< 50,–,C=CC(=O)Nc1cc(Nc2cc(N3OCC[C@@H]3c3ccc(F)c(C(F)(F)F)c3)ncn2)c(OC)cc1N1CCC(N2CCN(C3CC3)[C@H](C)C2)CC1 [Compound 53]
< 50,< 50,–,C=CC(=O)Nc1cc(Nc2cc(N3OCC[C@@H]3c3cccc(C(F)(F)F)c3F)ncn2)c(OC)cc1N1CCC(N2CCN(C3CC3)CC2)CC1 [Compound 62]

# More lines, now with the values behind:
Structure (SMILES),GI50 [1] [nM],GI50 [2] [nM],GI50 [3] [nM]
C=CC(=O)Nc1cc(Nc2cc(N3OCC[C@@H]3c3ccc(F)c(C(F)(F)F)c3)ncn2)c(OC)cc1N1CCN(C)CC1 [Compound 37],< 50,< 50,–
C=CCN1CCN(c2cc(OC)c(Nc3cc(N4OCC[C@@H]4c4ccc(F)c(C(F)(F)F)c4)ncn3)cc2NC(=O)C=C)CC1 [Compound 41],< 50,< 50,< 50
C=CC(=O)Nc1cc(Nc2cc(N3OCC[C@@H]3c3ccc(F)c(C(F)(F)F)c3)ncn2)c(OC)cc1N1CCN(CCC)CC1 [Compound 55],< 50,< 50,< 50
C=CC(=O)Nc1cc(Nc2cc(N3OCC[C@@H]3c3ccc(F)c(C(F)(F)F)c3)ncn2)c(OC)cc1N1CCC(N2CCO[C@@H](C)C2)CC1 [Compound 58],< 50,< 50,–
C=CC(=O)Nc1cc(Nc2cc(N3OCC[C@@H]3c3cccc(C(F)(F)F)c3F)ncn2)c(OC)cc1N1CCN(C)CC1 [Compound 60],< 50,< 50,–
C=CC(=O)Nc1cc(Nc2cc(N3OCC[C@@H]3c3cccc(C(F)(F)F)c3F)ncn2)c(OC)cc1N(C)CCN(C)C [Compound 61],< 50,< 50,–
